Reference: the supplement of paper PMC8612539
Converted amounts (≈) assume the structure as drawn.

Test system: Escherichia coli
Experiment: minimum inhibitory concentration (MIC)
Experimental: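 Broth microdilution MIC (Sensititre BOPO7F bovine plate, CLSI methods) of 19 antimicrobials against field isolates of P. multocida, M. haemolytica, H. somni (deep nasopharyngeal swabs) and E. coli, Enterococcus spp. (rectal swabs) from weaned dairy heifers. Incubation 16-24 h at 35 C. MIC is the lowest concentration preventing visible growth. Values with <= or > lie at the tested range limits. Trimethoprim-sulfamethoxazole is given as the trimethoprim component of a 1:19 mixture.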

CNC(C)C1CCC(N)C(OC2C(N)CC(N)C(OC3OCC(C)(O)C(NC)C3O)C2O)O1 (stereo not given) [Gentamicin]
Settings | minimum inhibitory concentration [µg/mL]
isolate (source animal id): 8 | ≤ 1
isolate (source animal id): 9 | ≤ 1
isolate (source animal id): 10 | ≤ 1
isolate (source animal id): 11 | ≤ 1
isolate (source animal id): 12 | ≤ 1
isolate (source animal id): 13 | ≤ 1
isolate (source animal id): 14 | ≤ 1
isolate (source animal id): 15 | ≤ 1
isolate (source animal id): 16 | ≤ 1
isolate (source animal id): 98 | ≤ 1
isolate (source animal id): 99 | ≤ 1
isolate (source animal id): 100 | ≤ 1
isolate (source animal id): 101 | ≤ 1
isolate (source animal id): 102 | ≤ 1
isolate (source animal id): 103 | ≤ 1
isolate (source animal id): 104 | ≤ 1
isolate (source animal id): 105 | ≤ 1
isolate (source animal id): 106 | ≤ 1
isolate (source animal id): 107 | ≤ 1
isolate (source animal id): 108 | ≤ 1
isolate (source animal id): 109 | ≤ 1
isolate (source animal id): 110 | ≤ 1
isolate (source animal id): 111 | ≤ 1
isolate (source animal id): 112 | ≤ 1
isolate (source animal id): 113 | ≤ 1
isolate (source animal id): 114 | ≤ 1
isolate (source animal id): 115 | ≤ 1
isolate (source animal id): 116 | ≤ 1
isolate (source animal id): 117 | ≤ 1
isolate (source animal id): 118 | ≤ 1
isolate (source animal id): 119 | ≤ 1
isolate (source animal id): 120 | ≤ 1
isolate (source animal id): 121 | ≤ 1
isolate (source animal id): 122 | 8 (≈ 16.8 µM)
isolate (source animal id): 123 | ≤ 1
isolate (source animal id): 124 | 2 (≈ 4.19 µM)
isolate (source animal id): 125 | ≤ 1
isolate (source animal id): 126 | ≤ 1
isolate (source animal id): 127 | ≤ 1
isolate (source animal id): 128 | ≤ 1
isolate (source animal id): 129 | ≤ 1
isolate (source animal id): 130 | ≤ 1
isolate (source animal id): 131 | ≤ 1
isolate (source animal id): 132 | ≤ 1
isolate (source animal id): 133 | ≤ 1
isolate (source animal id): 134 | ≤ 1
isolate (source animal id): 135 | ≤ 1
isolate (source animal id): 136 | ≤ 1
isolate (source animal id): 137 | ≤ 1
isolate (source animal id): 138 | ≤ 1
isolate (source animal id): 139 | ≤ 1
isolate (source animal id): 140 | ≤ 1
isolate (source animal id): 141 | ≤ 1
isolate (source animal id): 142 | ≤ 1
isolate (source animal id): 143 | ≤ 1
isolate (source animal id): 144 | ≤ 1
isolate (source animal id): 145 | ≤ 1
isolate (source animal id): 146 | ≤ 1
isolate (source animal id): 147 | ≤ 1
isolate (source animal id): 148 | ≤ 1
isolate (source animal id): 149 | ≤ 1
isolate (source animal id): 150 | ≤ 1
isolate (source animal id): 151 | ≤ 1
isolate (source animal id): 152 | ≤ 1
isolate (source animal id): 153 | ≤ 1
isolate (source animal id): 154 | ≤ 1
isolate (source animal id): 155 | ≤ 1
isolate (source animal id): 156 | ≤ 1
isolate (source animal id): 157 | ≤ 1
isolate (source animal id): 158 | ≤ 1
isolate (source animal id): 159 | ≤ 1
isolate (source animal id): 160 | ≤ 1
isolate (source animal id): 161 | ≤ 1
isolate (source animal id): 162 | ≤ 1
isolate (source animal id): 163 | ≤ 1
isolate (source animal id): 164 | ≤ 1
isolate (source animal id): 165 | ≤ 1
isolate (source animal id): 166 | ≤ 1
isolate (source animal id): 167 | ≤ 1
isolate (source animal id): 168 | ≤ 1
isolate (source animal id): 169 | ≤ 1
isolate (source animal id): 170 | ≤ 1
isolate (source animal id): 171 | ≤ 1
isolate (source animal id): 172 | ≤ 1
isolate (source animal id): 173 | ≤ 1
isolate (source animal id): 174 | ≤ 1
isolate (source animal id): 175 | ≤ 1
isolate (source animal id): 176 | ≤ 1
isolate (source animal id): 177 | ≤ 1
isolate (source animal id): 178 | ≤ 1
isolate (source animal id): 179 | ≤ 1
isolate (source animal id): 180 | 4 (≈ 8.38 µM)
isolate (source animal id): 181 | ≤ 1
isolate (source animal id): 182 | ≤ 1
isolate (source animal id): 183 | ≤ 1
isolate (source animal id): 184 | ≤ 1
isolate (source animal id): 185 | ≤ 1
isolate (source animal id): 186 | ≤ 1
isolate (source animal id): 187 | 8 (≈ 16.8 µM)
isolate (source animal id): 188 | ≤ 1
